Experimental data as given in publication PMC10082216 (Nature Communications, 2023).

Tests used:
[1] = test system: mature stage V gametocytes (NF54 strain); assay: microbe, parasite or virus in culture; format: cell-based, Plasmodium falciparum; conditions: for outcome of primary screen (hit definition): 1.11 µM
Method: (§1) Screening was conducted as previously described. Briefly, mature stage V gametocytes (NF54 strain) were cultured in vitro, then exposed to the explored compounds and filtered thereafter through layers of microspheres (microsphiltration)[25],[28]. Stiffening activity was determined by comparing gametocytemia up and downstream from the microsphere layers after filtration of drug-exposed gametocytes in 384-well plates using a vacuum manifold. Gametocytemia was assessed using DNA (Sybr Green) and erythrocyte membrane (CellMask) staining. Killing effect was assessed by MitoTracker staining. We screened two small libraries, specifically the Pathogen Box from the Medicine for Malaria Venture and the Kinase Inhibitors Box from GSK (400 and 350 compounds, respectively, Fig. 1A, B), and furthermore the larger ReFrame repurposing library (12,805 compounds, Fig. 1C).
(§2) The Pathogen Box library (400 compounds, provided by MMV-Medicine for Malaria Ventures, Geneva, Switzerland), the Kinase Inhibitors Box library (350 compounds, provided by GSK-Glaxo SmithKline DDW Unit, Tres Cantos, Spain), and the ReFrame library (12,805 compounds provided by the California Institute for Biomedical Research-Calibr, La Jolla, CA, USA) were used according to the providers’ instructions. DMSO-solubilized compounds (10 mM stock concentration) were loaded in 384-well plates (Seahorse, cat. no. 201035−100). Two columns were left empty for the controls. For each compound, 5 nL were pre-spotted in a single well to reach a final concentration of 1.11 μM. The final volume for each well was 45 μl. Controls were prepared as follows: 22.5 nL of DMSO were loaded in 16 wells as negative controls (0.05% final concentration); 22.5 nL of NITD609 (provided by MMV, Geneva, Switzerland) 1 mM were loaded in 8 wells (0.5 μM final concentration), 17 nL of Calyculin A (Sigma, cat. no. C5552) […] were loaded in 6 wells (75 nM final concentration) and 225 nL of Gentian Violet (MolPort, cat. no. 002-133-551) 10 mM were loaded in the remaining 2 wells (50 μM final concentration). Plates were prepared in triplicate for the Pathogen Box and sextuplicate for the Kinase Inhibitors Box.
(§3) Plasmodium falciparum NF54 strain parasites (used for screening campaign) were cultured at 4% hematocrit in RBCs from informed blood donors (blood group A) as previously described. Parasites were taken from the -80 °C freezer, then rapidly melt for 1 minute in a 37 °C water bath. A saline solution was gently added to avoid the lysis. Firstly, NaCl dissolved at 12% in distilled water (1/5 of the volume measured in the cryovial) and then NaCl dissolved at 1.6% (9 times the cryovial’s volume). After that, fresh RBCs were added to allow parasites re-growth. Infected RBCs were kept in RPMI medium (Sigma-Aldrich, cat. no. R4130), supplemented with 10% of decomplemented human serum, hypoxanthine 50 mg/l (Sigma-Aldrich, cat. no. H9636). Biobank of Castilla y Leon and Centro de Transfusiones de Madrid as providers of human red blood cell concentrates. The production of gametocytes was induced from a 0.5% ring-stage parasitemia (day 0). Medium was changed daily to induce gametocytes differentiation, as previously described. At day 17, gametocytes were concentrated using a density gradient medium (NycoPrep 1.077, Progen cat. no. 1114550)[27]. Parasitemia was adjusted by FACS (SYBR-Green and MitoTracker double staining, 3–5% targeted). Hematocrit was adjusted to 0.5% by adding fresh RBCs and controlled by manual counting in a Neubauer chamber (Celeromics, cat. no. 717810). Finally, the gametocyte suspension was poured (45 μL/well) into the compound-containing 384-well microplate, then incubated 24 hours both for the screening campaign and the dose-response analysis. Both asexual and sexual stages were cultivated in RPMI 1640 supplemented with 25 mM HEPES, 50 mg/L hypoxanthine, 50 μg/mL gentami-cin, 10% pooled heat-inactivated human serum (A^+).

[2] = test system: mature stage V gametocytes (NF54 strain); assay: High-throughput screening: killing effect by MitoTracker staining, primary screening at 1.11 µM and dose-response analysis; format: cell-based, Plasmodium falciparum; conditions: stage V gametocytes NF54, 24 h, dose-response analysis, N/A = not active in dose-response analysis, read-out: Killing IC50
Method: as §1, §2, §3

[3] = Plasmodium falciparum, NF54, 24 h, read-out: Stiffening IC50 (retention)
[4] = Plasmodium falciparum, NF54, 24 h
[5] = stage V gametocytes NF54, 24 h, dose-response analysis, N/A = not active in dose-response analysis, read-out: Stiffening IC50 (retention)

| Molecule | IC50 [1, 3] | IC50 [2, 4] | IC50 [1, 5] | IC50 [2] | further results |
| --- | --- | --- | --- | --- | --- |
| Cl[TeH]1(Cl)(Cl)OCCO1 [Ammonium trichlorotellurate] | 2200 nM | 13700 nM |  |  |  |
| [O-][n+]1ccccc1SSc1cccc[n+]1[O-] [Bispyrithione] | 2350 nM |  |  |  | IC50 ([2]; Plasmodium falciparum): 920 nM |
| CC(C)C[C@H](NC(=O)[C@H](Cc1ccccc1)NC(=O)c1cnccn1)B(O)O [Bortezomib] |  |  |  |  | IC50 ([2]; Plasmodium falciparum): 2060 nM |
| COC(=O)[C@@]12OC[C@]34[C@H]([C@@H](O)[C@@H]1O)[C@@]1(C)CC(=O)C(O)=C(C)[C@@H]1C[C@H]3OC(=O)[C@H](OC(=O)/C=C(\C)C(C)C)[C@@H]24 [Bruceantin] | 20 nM |  |  |  | IC50 ([2]; Plasmodium falciparum): 160 nM |
| CCCN1CCCC(c2ccc(Nc3nc(Nc4cc(F)ccc4C(N)=O)c4cc[nH]c4n3)c(OC)c2)C1 (stereo not drawn) [GSK1173862A] | 345 nM | 2400 nM |  |  |  |
| COc1cc(N2CCN(C(C)C)CC2)ccc1Nc1nc(Nc2ccc(F)cc2C(N)=O)c2cc[nH]c2n1 [GSK1220512A] | 2320 nM | 17000 nM |  |  |  |
| CCCN1CCC(c2ccc(Nc3nc(Nc4cc(F)ccc4C(N)=O)c4cc[nH]c4n3)c(OC)c2)CC1 [GSK1326255A] | 480 nM | 8400 nM |  |  |  |
| C[C@]12CCC(=NOCCN)C[C@@H]1C(=O)C[C@@H]1[C@@H]2CC[C@]2(C)C(=O)CC[C@@H]12 [Istaroxime] | 170 nM |  |  |  |  |
| COc1cccc(CC(=O)N2CCC(n3c(C)nc4ccc(F)cc43)CC2)c1 [MMV020081] |  |  | 1470 nM | 29300 nM |  |
| CN(C)c1ccc2nc3ccc(=[N+](C)C)cc-3sc2c1 [Methylthioninium chloride] |  | 4850 nM |  |  | IC50 ([1]; Plasmodium falciparum, NF54, 24 h, read-out: Stiffening IC50 (retention), stage V gametocytes NF54, 24 h, dose-response analysis, N/A = not active in dose-response analysis): 2800 nM |
| CCCCCCCCCCCCCC[n+]1ccc(C)cc1 [Myristyl-gamma picolinium chloride] |  |  | 7200 nM | 4150 nM |  |
| CC[C@@H](C(=O)O)[C@@H]1O[C@@H]([C@@H](C)[C@H](O)[C@H](C)C(=O)[C@H](CC)[C@H]2O[C@]3(C=C[C@@H](O)[C@]4(CC[C@@](C)([C@H]5CC[C@](O)(CC)[C@H](C)O5)O4)O3)[C@H](C)C[C@@H]2C)[C@@H](C)C[C@@H]1C [Narasin] | 43000 nM |  |  |  | IC50 ([2]; Plasmodium falciparum): 46000 nM |
| CCCCCCCCN=c1ccn(CCCCCCCCCCn2ccc(=NCCCCCCCC)cc2)cc1 [Octenidine] | 1820 nM | 1250 nM |  |  |  |
| CC[C@H]1/C=C/C=C/C[C@@H](C)[C@H](O)[C@@](C)(O)C(=O)[C@@H](C)[C@H](O)[C@@H](C)C(=O)[C@@H](C)[C@H](O)[C@@H](C)/C=C/C(=O)O[C@@H]2[C@H](C)[C@H](CC1)O[C@@]1(O[C@@H](C[C@@H](C)O)[C@@H](C)CC1=O)[C@H]2C [Oligomycin B] |  |  | 1550 nM | 5800 nM |  |
| CCCCN(CCCC)c1ccc2nc3ccc(=[N+](CCCC)CCCC)cc-3sc2c1 [PPA904] |  |  | 5050 nM | 2420 nM |  |
| O=C([O-])[C@H]([O-])[C@@H]([O-])C(=O)[O-].O=C([O-])[C@H]([O-])[C@@H]([O-])C(=O)[O-].[K+].[K+].[Sb+3].[Sb+3] [Potassium antimonyl tartrate] |  |  | 10700 nM | 3630 nM |  |
| C/C=C1\NC(=O)[C@H]2CSSCC/C=C/[C@H](CC(=O)N[C@H](C(C)C)C(=O)N2)OC(=O)[C@H](C(C)C)NC1=O [Romidepsin] | 5000 nM |  |  |  | IC50 ([2]; Plasmodium falciparum): 20000 nM |
| COCCn1c2c([n+](Cc3cnccn3)c1C)C(=O)c1ccccc1C2=O [Sepantronium bromide] | 1890 nM | 1350 nM |  |  |  |
| C[CH2][Hg][S]c1ccccc1C(=O)[O-].[Na+] [Thimerosal] |  |  | 930 nM | 1500 nM |  |
| CNCc1ccc(-c2cc(-c3nc(-c4ccc(S(=O)(=O)C(C)C)cc4)cnc3N)on2)cc1 [VE-822] | 9500 nM | 710 nM |  |  |  |
| CCCc1nn(C)c2c(=O)[nH]c(-c3cc(S(=O)(=O)N4CCN(C)CC4)ccc3OCC)nc12 [sildenafil] |  |  |  |  | outcome of primary screen (hit definition) [1]: not captured by the primary screen |
| CN1CC(=O)N2[C@H](c3ccc4c(c3)OCO4)c3[nH]c4ccccc4c3C[C@@H]2C1=O [tadalafil] |  |  |  |  | outcome of primary screen (hit definition) [1]: not captured by the primary screen |
| Bismuth ethanedithiol |  |  | 1500 nM | 1300 nM |  |
| Eseroline |  |  | 2300 nM | 1560 nM |  |
| Oligomycin A |  |  |  |  | IC50 ([1]; read-out: Stiffening IC50 (retention), stage V gametocytes NF54, 24 h, dose-response analysis, N/A = not active in dose-response analysis): 500 nM |
